Among the data in the Kinase Knowledgebase extract (Sharma et al. 2016) are IC50 values, retold here.

This test concerns the target EGFR (UniProt P00533).

≈ marks a conversion by molar mass, not a printed value.

EGFR, sequence (P00533 whole entry, looked up): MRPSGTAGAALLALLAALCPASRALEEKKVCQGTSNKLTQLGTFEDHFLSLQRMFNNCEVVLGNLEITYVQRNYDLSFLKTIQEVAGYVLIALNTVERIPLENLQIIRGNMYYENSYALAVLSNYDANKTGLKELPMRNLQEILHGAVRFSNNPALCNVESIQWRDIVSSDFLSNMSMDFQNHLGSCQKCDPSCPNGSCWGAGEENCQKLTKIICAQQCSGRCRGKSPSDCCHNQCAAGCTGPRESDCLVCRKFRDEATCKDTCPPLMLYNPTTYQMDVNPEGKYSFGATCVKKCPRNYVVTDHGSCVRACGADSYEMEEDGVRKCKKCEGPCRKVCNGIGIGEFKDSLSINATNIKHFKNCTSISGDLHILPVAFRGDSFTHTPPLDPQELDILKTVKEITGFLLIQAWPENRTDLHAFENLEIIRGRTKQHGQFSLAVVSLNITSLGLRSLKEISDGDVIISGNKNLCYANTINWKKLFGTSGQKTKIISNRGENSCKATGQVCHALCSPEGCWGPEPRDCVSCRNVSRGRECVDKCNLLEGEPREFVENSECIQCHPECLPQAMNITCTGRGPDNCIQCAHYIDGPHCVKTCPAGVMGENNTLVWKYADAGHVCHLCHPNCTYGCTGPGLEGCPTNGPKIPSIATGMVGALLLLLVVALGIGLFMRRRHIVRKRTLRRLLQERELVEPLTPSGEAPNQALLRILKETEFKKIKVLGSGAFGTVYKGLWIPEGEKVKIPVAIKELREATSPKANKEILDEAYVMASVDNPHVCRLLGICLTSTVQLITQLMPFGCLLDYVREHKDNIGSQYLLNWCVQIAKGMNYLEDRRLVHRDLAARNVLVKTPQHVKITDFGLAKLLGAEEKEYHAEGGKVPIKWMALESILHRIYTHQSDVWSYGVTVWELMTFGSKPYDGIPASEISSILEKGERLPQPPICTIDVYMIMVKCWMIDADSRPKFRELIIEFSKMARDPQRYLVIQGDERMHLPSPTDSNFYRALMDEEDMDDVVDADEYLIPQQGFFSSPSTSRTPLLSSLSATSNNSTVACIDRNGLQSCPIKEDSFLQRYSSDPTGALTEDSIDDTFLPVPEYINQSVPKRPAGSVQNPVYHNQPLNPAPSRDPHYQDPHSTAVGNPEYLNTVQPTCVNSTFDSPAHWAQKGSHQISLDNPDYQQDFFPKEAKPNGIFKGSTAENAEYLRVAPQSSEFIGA

With `CC(C)(C)OC(=O)Nc1ccc(Nc2ncnc(Nc3ccc(OCc4ccccc4)cc3)n2)cc1`, the IC50 was over 4.5 µg/mL. Consider `Fc1ccc(CNc2ncccc2-c2ncnc(Nc3cccc(Cn4ccnc4)c3)n2)cc1`, for which the IC50 was in the range of 0.4 to 2.4 µg/mL (≈ 0.884 to 5.3 µM). On to `Clc1ccc(-c2csc(Nc3ncnc(-n4cccc4)n3)n2)cc1`, for which the IC50 was over 4.5 µg/mL. Then `COc1cc(Nc2ncnc(-n3c(N)nc4ccccc43)n2)cc(OC)c1OC`, with over 4.5 µg/mL; and `CCN(c1cccc(C)c1)c1ncnc(Nc2cc(OC)c(OC)c(OC)c2)n1`, with under 0.4 µg/mL; and `Clc1cccc(Nc2ncnc(Nc3cc(-c4ccccc4)n[nH]3)n2)c1`, with under 0.4 µg/mL.

`c1ccc(-c2cc(Nc3ncnc(Nc4cccc(-c5cnco5)c4)n3)[nH]n2)cc1`: the IC50 is 0.4 to 2.4 µg/mL (≈ 1.01 to 6.05 µM). The same measure for `c1ccc(CNc2ncccc2-c2ncnc(Nc3cccc(Cn4ccnn4)c3)n2)cc1`: 0.4 to 2.4 µg/mL (≈ 0.918 to 5.51 µM). Turning to `COc1cc(Nc2ncnc(Nc3cccc(Br)c3)n2)cc(OC)c1OC`, the IC50 was under 0.4 µg/mL.

In turn, `Clc1ncnc(Nc2cc(-c3ccccc3)n[nH]2)n1` registered an IC50 of over 4.5 µg/mL.

The compound `COc1cc(Nc2ncnc(-n3c(NCc4ccc5c(c4)OCO5)nc4ccccc43)n2)cc(OC)c1OC` had an IC50 of over 4.5 µg/mL. Then `COc1cc(Nc2ncnc(-n3c(NCCCCO)nc4ccccc43)n2)cc(OC)c1OC`, with over 4.5 µg/mL. `CCN(CC)CCN(C)c1ncnc(Nc2ccc(OC)c(OC)c2)n1` came in with a half-maximal inhibitory concentration (IC50) of over 4.5 µg/mL. The same measure for `COc1cc(Nc2ncnc(Nc3cccc4ccccc34)n2)cc(OCCN2CCOCC2)c1OC`: under 0.4 µg/mL; for `Cc1ccc2c(c1)CCCN2c1ncnc(NCCCn2ccnc2)n1`: over 4.5 µg/mL.

In turn, `COc1cc(Nc2ncnc(-n3c(NCc4ccccc4)nc4ccccc43)n2)cc(OC)c1OC` displayed an IC50 of 2.4 to 3.5 µg/mL (≈ 4.96 to 7.24 µM). Then `COC(=O)c1ccc(-c2cc(Nc3ncnc(NCc4ccco4)n3)[nH]n2)cc1`, with over 4.5 µg/mL; and `COc1cc(Nc2ncnc(-c3cccnc3CCN)n2)cc(OC)c1OC`, with over 4.5 µg/mL; and `COc1cc(Nc2ncnc(N[C@@H]3CCCc4ccccc43)n2)cc(OC)c1OC`, with 0.4 to 2.4 µg/mL (≈ 0.982 to 5.89 µM).

For the compound `COc1cc(Nc2ncnc(Nc3cc(OC)c(OC)c(OC)c3)n2)cc(OC)c1OC`, the IC50 lay in the range of 3.5 to 4.5 µg/mL (≈ 7.89 to 10.1 µM).

The compound `O=C(O)Cc1cccc(Nc2ncnc(-c3cccnc3Nc3ccccc3)n2)c1` had a 50% inhibitory concentration (IC50) of 0.4 to 2.4 µg/mL (≈ 1 to 6.02 µM).

As to `COc1cc(Nc2ncnc(Nc3ccc(N(C)C(C)=O)cc3)n2)cc(OC)c1OC`, the IC50 was over 4.5 µg/mL. The same measure for `COc1cc(Nc2ncnc(-c3ccc(NCCCO)nc3)n2)cc(OC)c1OC`: over 4.5 µg/mL; for `COC(=O)c1ccc(-c2cc(Nc3ncnc(NCCNC(C)=O)n3)[nH]n2)cc1`: over 4.5 µg/mL; for `COc1cc(Nc2ncnc(-c3ccc(N4CCOCC4)nc3)n2)cc(OC)c1OC`: over 4.5 µg/mL. `c1ccc(Nc2ncccc2-c2ncnc(Nc3cccc(Cn4ccnn4)c3)n2)cc1` returned an IC50 of over 4.5 µg/mL. Then `COc1ccc(Nc2ncnc(Nc3cccc(C)c3)n2)cc1OC`, with under 0.4 µg/mL; and `COc1cc(Nc2ncnc(NC3CC3c3ccccc3)n2)cc(OC)c1OC` (configuration not stated), with under 0.4 µg/mL; and `CCN(c1ccc(C)cc1)c1ncnc(Nc2cc(OC)c(OC)c(OC)c2)n1`, with under 0.4 µg/mL. Then `COc1cc(Nc2ncnc(Nc3ccc(NC(C)=O)c(C(F)(F)F)c3)n2)cc(OC)c1OC`, with 2.4 to 3.5 µg/mL (≈ 5.02 to 7.32 µM); and `C=CCNc1nc2ccccc2n1-c1ncnc(Nc2cc(OC)c(OC)c(OC)c2)n1`, with over 4.5 µg/mL; and `O=c1[nH]c2ccccc2n1-c1ncnc(Nc2cc(C(F)(F)F)cc(C(F)(F)F)c2)n1`, with over 4.5 µg/mL. Then `COc1ccc(Nc2ncnc(N(C)c3ccccc3Cl)n2)cc1OC`, with under 0.4 µg/mL; and `CN(c1cccc(Cl)c1)c1ncnc(Nc2ccc(F)c(Cl)c2)n1`, with under 0.4 µg/mL; and `O=c1[nH]c2ccccc2n1-c1ncnc(Nc2cccc([N+](=O)[O-])c2)n1`, with over 4.5 µg/mL. `COC(=O)Cc1cccc(Nc2ncnc(-n3c(NCc4ccc(OC)cc4)nc4ccccc43)n2)c1` had an IC50 of over 4.5 µg/mL. Then `CN(c1cccc(Cl)c1)c1ncnc(Nc2ccncc2)n1`, with under 0.4 µg/mL; and `COc1cc(Nc2ncnc(-n3c(NC(CO)c4ccccc4)nc4ccccc43)n2)cc(OC)c1OC` (configuration not stated), with over 4.5 µg/mL. On to `COc1cc(Nc2ncnc(-c3cccnc3NC(C)c3ccccc3)n2)cc(OC)c1OC` (configuration not stated), for which the IC50 is over 4.5 µg/mL. Then `COc1ccc2c(c1)nc(NCc1ccc(F)cc1)n2-c1ncnc(Nc2cc(OC)c(OC)c(OC)c2)n1.COc1ccc2nc(NCc3ccc(F)cc3)n(-c3ncnc(Nc4cc(OC)c(OC)c(OC)c4)n3)c2c1`, with 2.4 to 3.5 µg/mL; and `c1ccc(CNc2ncnc(Nc3cc(-c4ccco4)n[nH]3)n2)nc1`, with 0.4 to 2.4 µg/mL (≈ 1.2 to 7.18 µM); and `COc1cc(Nc2ncnc(N(C)c3cccc(Cl)c3)n2)cc2ccccc12`, with under 0.4 µg/mL.

For `COc1ccc(-c2cc(Nc3ncnc(Nc4cc(OC)c(OC)c(OC)c4)n3)[nH]n2)cc1`, the IC50 lay in the range of 0.4 to 2.4 µg/mL (≈ 0.89 to 5.34 µM). Then `CNc1nc2ccccc2n1-c1ncnc(Nc2cc(OC)c(OC)c(OC)c2)n1`, with over 4.5 µg/mL. The same measure for `CN(c1cccc(Cl)c1)c1ncnc(Nc2cccc(Br)c2)n1`: under 0.4 µg/mL. On to `COc1ccc2c(c1)nc(NCc1ccccc1)n2-c1ncnc(Nc2cc(OC)c(OC)c(OC)c2)n1.COc1ccc2nc(NCc3ccccc3)n(-c3ncnc(Nc4cc(OC)c(OC)c(OC)c4)n3)c2c1`, for which the IC50 lay within 0.4 to 2.4 µg/mL. Compound `COc1cc(Nc2ncnc(Nc3cccc(Cl)c3)n2)cc(OC)c1` displayed an IC50 of under 0.4 µg/mL.

The IC50 is the point on the concentration scale where inhibition reaches its midpoint.
